Laboratory results: article PMC6842543, “Antiparasitic effect of synthetic aromathecins on Leishmania infantum” (BMC Veterinary Research, 2019)
Converted amounts (≈) assume the structure as drawn. “Also recorded” adds a separate entry of the source. Like-named read-outs stand apart in the source and are kept apart here.

What was measured:
L. infantum amastigotes = experiment: Ex vivo murine splenic explant culture with intramacrophagic iRFP L. infantum amastigotes; assay type: cell-based, Leishmania infantum; settings: for EC50: Leishmania infantum, 72 h, read-out: EC50 L. infantum amastigotes; for SI: Selectivity Index = CC50/EC50 (amastigotes): CC50 murine splenocytes / EC50 amastigotes
Experimental: (§1) Two series of aromathecins (Table 1) have been tested against both stages of L. infantum, free-living promastigotes and intracellular amastigotes harbored in mouse splenic cells. Experiments were carried out using a genetically modified L. infantum strain that constitutively produces the iRFP protein. This makes it possible to evaluate the viability of parasites measuring the fluorescence emitted at 708 nm.
Primary splenocyte cultures containing intramacrophagic amastigotes were obtained from dissected spleens of female BALB/c mice infected intraperitoneally with 1.5 × 10^9 metacyclic iRFP L. infantum promastigotes, 5 weeks before their sacrifice. Mice were obtained commercially (Janvier-Labs). Animals were housed in specific-pathogen free facilities and they were euthanized by cervical dislocation without anesthesia. These protocols were approved by the Animal Care Committee of University of Leon (project license SAF2017–83575-R), which complies with European Union Legislation (2010/63/UE) and Spanish Act (RD 53/2013).
(§2) The spleens were washed with cold phosphate-buffered saline (PBS), cut in small pieces and incubated for 20 min with 5 mL of 2 mg/mL collagenase D (Sigma) prepared in buffer (10 mM HEPES, pH 7.4, 150 mM NaCl, 5 mM KCl, 1 mM MgCl2 and 1.8 mM CaCl2). After that, the cell suspension obtained was passed through a 100 μm cell strainer, harvested by centrifugation (500×g for 7 min at 4 °C), washed twice with PBS, and cultured at 37 °C under 5% CO2 atmosphere in RPMI medium (Gibco) supplemented with 10 mM HEPES, 1 mM sodium pyruvate, 1xRPMI 1640 vitamin mix, 10% (v/v) FBS, 50 U/mL penicillin and 50 μg/mL streptomycin (Calvo-Álvarez et al., 2015).
(§3) The viability of cultured parasites in the presence of different concentrations of aromathecins was determined by measuring the reduction of infrared fluorescence emitted by free-living promastigotes/amastigotes with respect to negative controls of each form of the parasite treated with DMSO (up to 0.1% final concentration) as a vehicle. […] After 72 h incubation at 26 °C, the infrared fluorescence emitted at 708 nm by viable promastigotes/amastigotes was measured in an Odyssey (Li-Cor) infrared imaging system. Similarly, the cytotoxic effect (CC50) of aromathecins on uninfected splenic explants from BALB/c mice (cells that naturally harbor the amastigote stage) was measured by the Alamar Blue (Invitrogen) assay. The selectivity index (SI) was determined as the relationship between the CC50 value and the EC50 value for amastigotes. CC50 and EC50 were calculated by nonlinear analysis using the Sigma-Plot 10.0 statistical package. The aromathecins were dissolved in DMSO and stored at − 20 °C before their use as fresh aliquots.

[1] = system: L. infantum promastigotes; experiment: In vitro iRFP L. infantum promastigotes viability assay (infrared fluorescence); assay type: cell-based, Leishmania infantum; settings: Leishmania infantum, 72 h, read-out: EC50 L. infantum promastigotes
Experimental: as §1
The antiparasitic activity of the compounds was assessed on the genetically modified iRFP L. infantum strain, which constitutively produces the infrared fluorescent protein (iRFP) when cells are viable. iRFP L. infantum was grown at 26 °C in M-199 medium (Gibco) supplemented with 25 mM HEPES pH 7.2, 0.1 mM adenine, 0.0005% (w/v) hemin, 2 μg/mL biopterin, 0.0001% (w/v) biotin, 10% (v/v) heat-inactivated fetal bovine serum (FBS) and an antibiotic cocktail comprising 50 U/mL penicillin and 50 μg/mL streptomycin.
as §3

[2] = Cytotoxicity on uninfected splenic explants (Alamar Blue); assay type: cell-based, BALB/c mice; settings: mouse, uninfected splenic explants from BALB/c mice, Alamar Blue
Experimental: as §2, §3

[3] = Solubility limit in culture medium; assay type: physicochemical; settings: M199 culture medium
Experimental: The CPT resistant strain used in this work was generated exposing L. infantum promastigotes to increased concentrations of CPT, from 0.1 to the solubility limit of the compound, 20 μM in the case of CPT. Parasites were grown at 26 °C in M199 medium supplemented as described previously, each culture being inoculated at an initial density of 10^6 cells/mL. The promastigotes cultured in liquid medium in the presence of 20 μM CPT, were plated on semisolid M199 medium containing 20 μM CTP in order to select a single colony.

recombinant LTopIB = experiment: TopIB relaxation activity assay (supercoiled pBluescript-SK plasmid, agarose gel with ethidium bromide); assay type: biochemical, Leishmania; settings: for Inhibition of LTopIB relaxation activity (in words): 0.01, 0.1, 1, 10 and 100 μM, 26 °C, 4 min; for Concentration at which partial inhibition of LTopIB started: not concentration dependent
Experimental: In addition to the antileishmanial effect of these compounds, their activity as LTopIB inhibitors was analyzed in vitro (Fig. 2). Recombinant LTopIB was produced in a TopIB-defective yeast platform, and purified by standard chromatographic protocols. The effect of aromathecins (comp. 1 to 10) on LTopIB was addressed by measuring the relaxation of negatively supercoiled pBluescript-SK DNA plasmid in the presence of different concentrations of these molecules. In order to separate the nicked DNA generated by the cleavage-complex stabilization from the relaxed topoisomers, gels were run in the presence of ethidium bromide.
Fig. 2 Inhibition of LTopIB relaxation activity of negatively supercoiled pBluescript SK (−) plasmid (pSK) mediated by different aromathecins concentrations (0.01, 0.1, 1, 10 and 100 μM). The control reaction contained 1% DMSO. DNA was separated by gel electrophoresis in 1% agarose containing 0.1 μg/mL ethidium bromide. Gels were visualized with UV illumination. Key: R = relaxed DNA; Sc = supercoiled DNA; N = nicked DNA
Expression and purification of LTopIB were carried out according to a previously standardized protocol. LTopIB was purified from yeast strain EKY3 deficient in TopIB activity [MATα, ura3–52, his3Δ200, leu2Δ1, trp1Δ63, top1Δ:TRP1], transfected with the pESC-URA plasmid containing both subunits of LTopIB. Cells were grown in yeast synthetic drop-out medium without uracil (Sigma) supplemented with 2% raffinose (w/v) to OD600: 0.8–1 and induced for 10 h with 2% galactose (w/v). Yeast were harvested, washed with cold TEEG buffer (50 mM Tris-HCl pH 7.4, 1 mM EDTA, 1 mM EGTA, 10% glycerol) and resuspended to their lysis in 15 mL of 1 x TEEG buffer supplemented with 0.2 M KCl and a protease inhibitors cocktail (Thermo Scientific). Protein extract obtained was loaded on a 5 mL P-11 phosphocellulose column (Whatman International Ltd. England). LTopIB protein was eluted at 4 °C with a discontinuous gradient of KCl (0.2, 0.4, 0.6 M) in TEEG buffer.
The effect of aromathecins on recombinant LTopIB was determined by measuring the relaxation of negatively supercoiled pBluescript-SK DNA plasmid (pSK). Thus, 20 μL of reaction mixture (0.5 μg pSK; 10 mM Tris-HCl pH 7.5; 5 mM MgCl2; 0.1 mM EDTA; 15 μg/mL bovine serum albumin) along with 0.01, 0.1, 1, 10 and 100 μM of the different aromathecins were incubated at 26 °C during 4 min. The control reaction performed without aromathecins contained 1% DMSO. Reactions were stopped by adding 1% SDS (final concentration), digested with 1 mg/mL proteinase K at 37 °C during 1 h and extracted with phenol/chloroform. DNA was separated by gel electrophoresis in 1% agarose containing 0.1 μg/mL ethidium bromide in 0.1 M Tris borate EDTA buffer (pH 8.0) at 4 V/cm for 16 h. Gels were visualized with UV illumination.

[4] = read-out: CC50 Murine Splenocytes
[5] = splenic-infecting amastigotes, ex vivo explants from infected BALB/c mice
[6] = iRFP-L. infantum promastigotes, 26 °C, fluorescence at 708 nm, average of three experiments by duplicate
[7] = uninfected splenic explants (murine splenocytes)

Compound | EC50 (L. infantum amastigotes) [nM] | EC50 [1] [nM] | CC50 at 72 h [2, 4] [nM] | solubility [3] [µM] | SI: Selectivity Index = CC50/EC50 (amastigotes) (L. infantum amastigotes) | EC50 (L. infantum amastigotes; [5]) [nM] | Inhibition of LTopIB relaxation activity (in words) (recombinant LTopIB) | Concentration at which partial inhibition of LTopIB started (recombinant LTopIB) [µM] | EC50 [1, 6] [nM] | CC50 at 72 h [2, 7] [nM] | Total inhibition of LTopIB (recombinant LTopIB; only at high concentration (100 μM))
CC[C@@]1(O)C(=O)OCc2c1cc1n(c2=O)Cc2cc3ccccc3nc2-1 [CPT, Camptothecin, reference compound] | 30 ± 10 | 1120 ± 130 | 620 ± 10 | 20 (≈ 6.97 µg/mL) | – | – | – | – | – | – | –
CN(C)CCCc1c2c(nc3ccccc13)-c1cc3ccccc3c(=O)n1C2 [Compound 1] | – | – | – | – | 9.8 | 450 ± 140 | partial inhibition; also recorded: inhibit the enzyme at very low concentrations | 0.01 | 6270 ± 700 | 4410 ± 1070 | –
NCCNCc1c2c(nc3ccccc13)-c1cc3ccccc3c(=O)n1C2 [Compound 2] | – | – | – | – | – | 810 ± 50 | – | – | > 20000 | 2170 ± 270 | –
NCCCCNCc1c2c(nc3ccccc13)-c1cc3ccccc3c(=O)n1C2 [Compound 3] | – | – | – | – | 2.5 | 1010 ± 130 | partial inhibition | 0.01 | 3710 ± 450 | 2530 ± 140 | total inhibition
O=c1c2ccccc2cc2n1Cc1c-2nc2ccccc2c1CCCNCCO [Compound 4] | – | – | – | – | 5.0 | 990 ± 1170 | partial inhibition | 0.01 | 4990 ± 310 | 4960 ± 520 | –
O=c1c2ccccc2cc2n1Cc1c-2nc2ccccc2c1CCCn1ccnc1 [Compound 5] | – | – | 2310 ± 720 | – | 5.2 | 440 ± 30 | partial inhibition | 0.01 | > 20000 | – | –
